Experimental data reported in patent US20220265629A1, “TREATMENT OF SYSTOLIC DYSFUNCTION AND HEART FAILURE WITH REDUCED EJECTION FRACTION WITH THE COMPOUND (R)-4-(1-((3-(DIFLUOROMETHYL)-1-METHYL-1H-PYRAZOL-4-YL)SULFONYL)-1-FLUOROETHYL)-N-(ISOXAZOL-3-YL)PIPERIDINE-1-CARBOXAMIDE” (MyoKardia, Inc., priority 2019, published 2022).
Read-outs that look alike come from different tables or passages of the source.

Test: Single ascending oral dose study in healthy volunteers: plasma pharmacokinetics
Format: in vivo, human
Details: plasma, oral; for concentration at 6 h / concentration at 12 h / concentration at 24 h / concentration at 48 h / concentration at 72 h / AUC(0-t) / AUC(0-inf) / Cmax / half-life / MRT / Tmax / Vd/F: human; for concentration at 12 h: 12 Hours Postdose; for concentration at 24 h: 24 Hours Postdose; for concentration at 48 h: 48 Hours Postdose; for concentration at 72 h: 72 Hours Postdose
From the text: This example describes the first-in-human study of Compound I. Based on its mechanism of action, Compound I may offer a targeted therapy for patients with DCM caused by genetic or nongenetic mechanisms. The study was a randomized, double-blind, placebo-controlled, sequential group, single-ascending (oral) close study in healthy subjects aged 18-55 years. Eight dosing cohorts, each comprising eight healthy subjects, were enrolled. Within each cohort, subjects were randomized 6:2 to Compound I:placebo.
Subjects were resident at the clinical site for up to 5 days and 4 nights, from Day −1 (the day before dosing) to Day 4, and received a single dose of Compound I or placebo on Day 1. ECG telemetry was initiated 1 hour preclose and continued through 48 hours postclose (Day 3). Any subject with a preclose resting HR≥80 beats per minute was considered ineligible and not treated. […] Subjects returned for a safety follow-up visit 7 days (±1 day) after dosing.
All randomized study subjects received either Compound I or matching placebo as a single oral dose after a fasting period of at least 6 hours. Compound I drug substance is a crystalline, free-base, synthetic molecule with a molecular weight of 435.4 g/mol.
Compound I was provided as a powder for oral suspension. Placebo was provided as calcium carbonate powder. Both treatments were closed orally as a suspension. The suspension was made using Ora-Plus® suspending vehicle (Perrigo) and a cherry syrup flavoring vehicle (Humco), mixed 50% to 50%. The suspension was followed by approximately 100 mL water. The suspension was made up within 14 days from the time in which it was closed which was consistent with the stability data on the suspension. The suspension was made up so the volume administered to the subjects who received Compound I was the same at 20 mL.
Each subject received a close according to the cohort in which they were enrolled. Cohorts were enrolled sequentially, with each cohort receiving an escalated dose of Compound I. The closes administered were 3 mg, 10 mg, 25 mg, 50 mg, 100 mg, 175 mg, 350 mg, and 525 mg, respectively.
The concentrations of Compound I in human plasma and urine were quantitated by high performance liquid chromatography with tandem mass spectrometric detection (LC MS/MS) (Biological sample analysis study report Alturas AD17-726). Plasma samples were extracted by protein precipitation with acetonitrile containing internal standard MYK-5654. The calibration curves were linear over concentration range of 0.500 to 1000 ng/mL with a lower limit of quantification (LLOQ) of 0.500 ng/mL.
The PK Population included all subjects who received Compound I. Blood samples were collected for PK assessments. The actual timing of the samples may have been modified and/or up to an additional 2 samples may have been requested by the SRC after review of the data from previous cohorts. It was important that PK sampling occurred as closely as possible to the scheduled time (±10%). Both blood and urine samples were used for PK assessments.
In addition, for subjects who received placebo, a single plasma sample near the predicted tmax of Compound I was evaluated to confirm the lack of circulating Compound I. Plasma concentration data for Compound I was summarized using descriptive statistics, including mean, standard deviation (SD), median, minimum, and maximum values, and percent coefficient of variation. Other PK parameters included (but were not limited to) Cmax, tmax, AUC, t1/2, and MRT. Additionally, the apparent terminal-phase terminal half-life was calculated. The close proportionality of AUC and Cmax was explored.

[1] = 350 mg, 350 mg, read-out: Plasma concentration, Geometric Mean
[2] = 350 mg, 350 mg, read-out: Plasma concentration, Mean
[3] = 350 mg, 350 mg, read-out: Plasma concentration, Median
[4] = 525 mg, 525 mg, read-out: Plasma concentration, Geometric Mean
[5] = 525 mg, 525 mg, read-out: Plasma concentration, Mean
[6] = 525 mg, 525 mg, read-out: Plasma concentration, Median
[7] = 350 mg + 525 mg, read-out: Plasma concentration, Geometric Mean
[8] = 350 mg + 525 mg, read-out: Plasma concentration, Mean
[9] = 350 mg + 525 mg, read-out: Plasma concentration, Median

SMILES: Cn1cc(S(=O)(=O)[C@@](C)(F)C2CCN(C(=O)Nc3ccon3)CC2)c(C(F)F)n1 [Compound I, (R)-4-(1-((3-(difluoromethyl)-1-methyl-1H-pyrazol-4-yl)sulfonyl)-1-fluoroethyl)-N-(isoxazol-3-yl)piperidine-1-carboxamide]
- concentration at 6 h (350 mg, 6 Hours Postdose, 350 mg, read-out: Plasma concentration, Mean): 2660 ng/mL
- concentration at 6 h (350 mg, 6 Hours Postdose, 350 mg, read-out: Plasma concentration, Median): 2550 ng/mL
- concentration at 12 h [1]: 2090 ng/mL
- concentration at 12 h [2]: 2140 ng/mL
- concentration at 12 h [3]: 2120 ng/mL
- concentration at 24 h [1]: 1280 ng/mL
- concentration at 24 h [2]: 1320 ng/mL
- concentration at 24 h [3]: 1340 ng/mL
- concentration at 48 h [1]: 329 ng/mL
- concentration at 48 h [2]: 373 ng/mL
- concentration at 48 h [3]: 350 ng/mL
- concentration at 72 h [1]: 101 ng/mL
- concentration at 72 h [2]: 128 ng/mL
- concentration at 72 h [3]: 111 ng/mL
- AUC(0-t) (350 mg, read-out: AUC0-24, Geometric Mean): 44700 ng·h/mL
- AUC(0-t) (350 mg, read-out: AUC0-24, Mean): 45600 ng·h/mL
- AUC(0-t) (350 mg, read-out: AUC0-24, Median): 45000 ng·h/mL
- AUC(0-t) (350 mg, read-out: AUC0-48, Geometric Mean): 64200 ng·h/mL
- AUC(0-t) (350 mg, read-out: AUC0-48, Mean): 65900 ng·h/mL
- AUC(0-t) (350 mg, read-out: AUC0-48, Median): 66400 ng·h/mL
- AUC(0-t) (350 mg, read-out: AUC0-last, Geometric Mean): 73200 ng·h/mL
- AUC(0-t) (350 mg, read-out: AUC0-last, Mean): 76300 ng·h/mL
- AUC(0-t) (350 mg, read-out: AUC0-last, Median): 76200 ng·h/mL
- AUC(0-inf) (350 mg, read-out: AUC0-∞, Geometric Mean): 73600 ng·h/mL
- AUC(0-inf) (350 mg, read-out: AUC0-∞, Mean): 76700 ng·h/mL
- AUC(0-inf) (350 mg, read-out: AUC0-∞, Median): 76200 ng·h/mL
- Cmax (350 mg, read-out: Cmax, Geometric Mean): 2790 ng/mL
- Cmax (350 mg, read-out: Cmax, Mean): 2820 ng/mL
- Cmax (350 mg, read-out: Cmax, Median): 2900 ng/mL
- half-life (350 mg, read-out: Half-Life Lambda Z, Geometric Mean (converted)): 14.3 h
- half-life (350 mg, read-out: Half-Life Lambda Z, Mean (converted)): 14.7 h
- half-life (350 mg, read-out: Half-Life Lambda Z, Median (converted)): 14.5 h
- MRT (350 mg, read-out: Mean Residence Time, Geometric Mean): 22.4 h
- MRT (350 mg, read-out: Mean Residence Time, Mean): 22.8 h
- MRT (350 mg, read-out: Mean Residence Time, Median): 22.7 h
- Tmax (350 mg, read-out: Tmax, Geometric Mean): 4.84 h
- Tmax (350 mg, read-out: Tmax, Mean): 4.95 h
- Tmax (350 mg, read-out: Tmax, Median): 5 h
- Vd/F (350 mg, read-out: Vz/F, Geometric Mean): 98.3 L
- Vd/F (350 mg, read-out: Vz/F, Mean): 98.8 L
- Vd/F (350 mg, read-out: Vz/F, Median): 98.4 L
- concentration at 6 h (525 mg, 6 Hours Postdose, 525 mg, read-out: Plasma concentration, Geometric Mean): 2160 ng/mL
- concentration at 6 h (525 mg, 6 Hours Postdose, 525 mg, read-out: Plasma concentration, Mean): 2220 ng/mL
- concentration at 6 h (525 mg, 6 Hours Postdose, 525 mg, read-out: Plasma concentration, Median): 2220 ng/mL
- concentration at 12 h [4]: 1780 ng/mL
- concentration at 12 h [5]: 1840 ng/mL
- concentration at 12 h [6]: 1780 ng/mL
- concentration at 24 h [4]: 1190 ng/mL
- concentration at 24 h [5]: 1230 ng/mL
- concentration at 24 h [6]: 1180 ng/mL
- concentration at 48 h [4]: 420 ng/mL
- concentration at 48 h [5]: 465 ng/mL
- concentration at 48 h [6]: 426 ng/mL
- concentration at 72 h [4]: 116 ng/mL
- concentration at 72 h [5]: 147 ng/mL
- concentration at 72 h [6]: 122 ng/mL
- AUC(0-t) (525 mg, read-out: AUC0-24, Geometric Mean): 37500 ng·h/mL
- AUC(0-t) (525 mg, read-out: AUC0-24, Mean): 38500 ng·h/mL
- AUC(0-t) (525 mg, read-out: AUC0-24, Median): 38200 ng·h/mL
- AUC(0-t) (525 mg, read-out: AUC0-48, Geometric Mean): 57000 ng·h/mL
- AUC(0-t) (525 mg, read-out: AUC0-48, Mean): 58900 ng·h/mL
- AUC(0-t) (525 mg, read-out: AUC0-48, Median): 57400 ng·h/mL
- AUC(0-t) (525 mg, read-out: AUC0-last, Geometric Mean): 68100 ng·h/mL
- AUC(0-t) (525 mg, read-out: AUC0-last, Mean): 71700 ng·h/mL
- AUC(0-t) (525 mg, read-out: AUC0-last, Median): 68600 ng·h/mL
- AUC(0-inf) (525 mg, read-out: AUC0-∞, Geometric Mean): 68500 ng·h/mL
- AUC(0-inf) (525 mg, read-out: AUC0-∞, Mean): 72100 ng·h/mL
- AUC(0-inf) (525 mg, read-out: AUC0-∞, Median): 68800 ng·h/mL
- Cmax (525 mg, read-out: Cmax, Geometric Mean): 2290 ng/mL
- Cmax (525 mg, read-out: Cmax, Mean): 2350 ng/mL
- Cmax (525 mg, read-out: Cmax, Median): 2240 ng/mL
- half-life (525 mg, read-out: Half-Life Lambda Z, Geometric Mean (converted)): 14.7 h
- half-life (525 mg, read-out: Half-Life Lambda Z, Mean (converted)): 15.1 h
- half-life (525 mg, read-out: Half-Life Lambda Z, Median (converted)): 13.8 h
- MRT (525 mg, read-out: Mean Residence Time, Geometric Mean): 25.4 h
- MRT (525 mg, read-out: Mean Residence Time, Mean): 25.8 h
- MRT (525 mg, read-out: Mean Residence Time, Median): 25 h
- Tmax (525 mg, read-out: Tmax, Geometric Mean): 4.94 h
- Tmax (525 mg, read-out: Tmax, Mean): 4.97 h
- Tmax (525 mg, read-out: Tmax, Median): 5 h
- Vd/F (525 mg, read-out: Vz/F, Geometric Mean): 162 L
- Vd/F (525 mg, read-out: Vz/F, Mean): 166 L
- Vd/F (525 mg, read-out: Vz/F, Median): 171 L
- concentration at 6 h (6 Hours Postdose, 350 mg + 525 mg, read-out: Plasma concentration, Geometric Mean): 2380 ng/mL
- concentration at 6 h (6 Hours Postdose, 350 mg + 525 mg, read-out: Plasma concentration, Mean): 2440 ng/mL
- concentration at 6 h (6 Hours Postdose, 350 mg + 525 mg, read-out: Plasma concentration, Median): 2350 ng/mL
- concentration at 12 h [7]: 1930 ng/mL
- concentration at 12 h [8]: 1990 ng/mL
- concentration at 12 h [9]: 1860 ng/mL
- concentration at 24 h [7]: 1230 ng/mL
- concentration at 24 h [8]: 1280 ng/mL
- concentration at 24 h [9]: 1210 ng/mL
- concentration at 48 h [7]: 372 ng/mL
- concentration at 48 h [8]: 419 ng/mL
- concentration at 48 h [9]: 415 ng/mL
- concentration at 72 h [7]: 108 ng/mL
- concentration at 72 h [8]: 137 ng/mL
- concentration at 72 h [9]: 122 ng/mL
- concentration at 6 h (6 hours post-dose, bin 0-1000 ng/mL (n = 29), read-out: Plasma Concentration, Mean): 334 ng/mL
- concentration at 6 h (6 hours post-dose, bin 0-1000 ng/mL (n = 29), read-out: Plasma Concentration, Median): 286 ng/mL
- concentration at 6 h (6 hours post-dose, bin 1001-2000 ng/mL (n = 9), read-out: Plasma Concentration, Mean): 1360 ng/mL
- concentration at 6 h (6 hours post-dose, bin 1001-2000 ng/mL (n = 9), read-out: Plasma Concentration, Median): 1270 ng/mL
- concentration at 6 h (6 hours post-dose, bin >2000 ng/mL (n = 10), read-out: Plasma Concentration, Mean): 2590 ng/mL
- concentration at 6 h (6 hours post-dose, bin >2000 ng/mL (n = 10), read-out: Plasma Concentration, Median): 2420 ng/mL
- half-life (across the dose groups, read-out: terminal t1/2): 11 to 16 h
- half-life (combined 350 and 525 mg group, read-out: t1/2, range): 11 to 22 h
- Tmax (combined 350 and 525 mg group, read-out: tmax, range): 3 to 6 h
- Vd/F (doses ranging from 3 mg to 525 mg, read-out: volume of distribution (Vz/F)): 58 to 166 L
- Vd/F (doses up to 175 mg, read-out: mean apparent volume of distribution (Vz/F)): ~78 L
- Tmax (healthy volunteers, read-out: Tmax): 4 to 6 h
- half-life (healthy volunteers, read-out: terminal t1/2 (half-life) (converted)): ~15 h
- Vd (1-compartmental model analysis of in vivo data in human): 0.965 L/kg
- clearance (1-compartmental model analysis of in vivo data in human, read-out: CL (Human)): 0.949 mL/min/kg
